In patent US8703723B2, “Glycoside compounds and pharmaceutical compositions thereof” (Centrose, LLC, priority 2009, dated 2014):
Where two headings read alike, the source gives them in different places.

Assays:
A549 (NSCLC) cell line [1] = test: Cancer cell cytotoxicity assay (Calcein AM / Cell Titer-Glo), A549; format: cell-based, human
Method: (§1) Compounds of the invention and comparative compounds were assayed in three cancer cell lines to confirm cytotoxic activity and to set a range of concentrations to use in subsequent assays. All cell lines were maintained in RPMI medium 1640 supplemented with 10% (wt/vol) fetal bovine serum and penicillin-streptomycin (100 units/ml and 100 μg/ml). Cells were routinely checked for microbial or mycoplasma contamination and if necessary replaced. Cells were harvested by trypsinization using 0.25% trypsin and 0.1% EDTA and then counted in a ViCell XR coulter counter in duplicate, before and after dilution for assay plating. Between four to nine different types of human cancer cells were plated at a density of 10,000-15,000 cells per well of each 96-well black tissue culture treated microtiter plate, then were grown for 1 hour at 37° C. with 5% CO2/95% air in a humidified incubator to allow cells to attach before compound addition. Compound stocks (100×) were prepared in 96-well V-bottom polypropylene microtiter plates. Five serial (1:2) dilutions were made with anhydrous DMSO at 100× the final concentration used in the assay. The individual wells in compound-containing […] well plates were diluted 1:10 with complete cell culture medium and the 10× (10 μL) stocks were added to 90 μl of cells in each plate to ensure full mixing of stocks with culture media by using a Biomek FX liquid handler with 96-well head. Doxorubicin was used as the control to monitor the behavior of each cell line. Cells were incubated with the compounds for 3 to 4 days before fluorescence and luminescence reading. Test plates were removed from the incubator and washed once in sterile PBS to remove serum containing calcium esterases. Calcein AM (acetoxymethyl ester) reagent was added and the cells were incubated for 30 min at 37° C. Plates were read for emission by using a fluorescein filter (excitation 485 nm, emission 535 nm). An equal volume (30 μL) of Cell Titer-Glo reagent (Promega Corporation, Inc.) was added and incubated for 10 min at room temperature with gentle agitation to lyse the cells. Each plate was re-read for luminescence to confirm the inhibition observed in the fluorescent […] assay as a measure of cell viability. The cancer cell cytotoxicity assays were run in triplicate using ≧5 different drug concentrations, and the data were analyzed to establish statistical significance and a valid IC50 value for inhibition of cell growth, based on ≧2 log differences in drug effect.
(§2) The cancer cell cytotoxicities (determined substantially according to the method of Example 5) of various compounds of the invention and comparative compounds as determined in four to five different human cancer cell lines are shown in Table 1. The structures of the compounds listed are found in FIGS. 2-4.

H1299 (NSCLC) cell line = test: Cancer cell cytotoxicity assay (Calcein AM / Cell Titer-Glo), H1299; format: cell-based, human
Method: as §1, §2

[2] = system: NCI-H460 (NSCLC) cell line; test: Cancer cell cytotoxicity assay (Calcein AM / Cell Titer-Glo), NCI-H460; format: cell-based, human
Method: as §1, §2

[3] = system: HT29 (Colorectal) cell line; test: Cancer cell cytotoxicity assay (Calcein AM / Cell Titer-Glo), HT29; format: cell-based, human
Method: as §1, §2

[4] = system: SKOV3 (Ovarian) cell line; test: Cancer cell cytotoxicity assay (Calcein AM / Cell Titer-Glo), SKOV3; format: cell-based, human
Method: as §1, §2

human cancer cell lines = test: Cancer cell cytotoxicity, summary over four to five human cancer cell lines; format: cell-based; details: read-out: IC50 values (cancer cell cytotoxicity)
Method: as §1, §2

A549 (NSCLC) cell line [5] = details: footnote 2: data from Langenhan et al. 2005; cited from earlier work
[6] = system: NCI-H460 (NSCLC) cell line; details: footnote 2: data from Langenhan et al. 2005; cited from earlier work
[7] = system: SKOV3 (Ovarian) cell line; details: footnote 2: data from Langenhan et al. 2005; cited from earlier work
[8] = Homo sapiens, A549, NSCLC, footnote 5: determined at same time as CEN08-193
[9] = Homo sapiens, NCI-H1299, NSCLC, footnote 5: determined at same time as CEN08-193
[10] = Homo sapiens, NCI-H460, NSCLC, footnote 5: determined at same time as CEN08-193
[11] = Homo sapiens, HT-29, Colorectal, footnote 5: determined at same time as CEN08-193
[12] = Homo sapiens, SK-OV-3, Ovarian, footnote 5: determined at same time as CEN08-193
[13] = Ovarian, assay set not specified
[14] = Homo sapiens, A549, NSCLC, footnote 6: determined at same time as CEN08-243 and -244
[15] = Homo sapiens, NCI-H1299, NSCLC, footnote 6: determined at same time as CEN08-243 and -244
[16] = Homo sapiens, NCI-H460, NSCLC, footnote 6: determined at same time as CEN08-243 and -244
[17] = Homo sapiens, SK-OV-3, Ovarian, footnote 6: determined at same time as CEN08-243 and -244
[18] = NSCLC, footnote 7: determined at same time as CEN08-180

| Compound | IC50 (human cancer cell lines) | IC50 (A549 (NSCLC) cell line [1]; NSCLC, assay set not specified) | IC50 (H1299 (NSCLC) cell line; NSCLC, assay set not specified) | IC50 ([2]; NSCLC, assay set not specified) | IC50 [4, 13] | IC50 (A549 (NSCLC) cell line [1]; [14]) | IC50 (H1299 (NSCLC) cell line; [15]) | IC50 [2, 16] | IC50 [4, 17] | other results |
| --- | --- | --- | --- | --- | --- | --- | --- | --- | --- | --- |
| C[C@]12CCC(OC3OC[C@H](O)[C@@H](O)[C@@H]3O)C[C@H]1CCC1C2CC[C@]2(C)[C@@H](C3=CCOC3=O)CC[C@]12O (stereo partly drawn) [CEN08-193] | < 0.08 µM | – | – | – | – | – | – | – | – | IC50 (A549 (NSCLC) cell line [1]; [8]): 0.004 µM; IC50 (H1299 (NSCLC) cell line; [9]): 0.006 µM; IC50 [2, 10]: 0.009 µM; IC50 [3, 11]: 0.011 µM; IC50 [4, 12]: 0.051 µM |
| CON(C1C=C2CCC3C(CCC4(C)C(c5ccc(=O)oc5)CCC34O)C2(C)CC1)C1OC(CO)C(O)C(O)C1N (stereo not drawn) [CEN08-237] | – | 0.021 µM | 0.02 µM | 0.037 µM | – | – | – | – | – | – |
| CON(C1CCC2(C)C(CCC3C2CCC2(C)C(C4=CC(=O)OC4)CCC32O)C1)C1OCC(N)C(O)C1O (stereo not drawn) [CEN08-241] | – | 0.02 µM | 0.024 µM | 0.027 µM | 0.074 µM | – | – | – | – | – |
| CON(C1CCC2(C)C(CCC3C2CCC2(C)C(C4=CC(=O)OC4)CCC32O)C1)C1OCC(N)C(O)C1O (stereo not drawn) [CEN08-242] | – | 0.05 µM | 0.159 µM | 0.074 µM | 0.228 µM | – | – | – | – | – |
| CON(C1C=C2CCC3C(CC[C@]4(C)[C@@H](c5ccc(=O)oc5)CC[C@]34O)[C@@]2(C)CC1)[C@H]1OC[C@H](N)[C@H](O)C1O (stereo partly drawn) [CEN08-243, (3S)-3-N-methoxyamino-scillarenin-L-neo-4-amino-4-deoxyxyloside] | < 0.08 µM | – | – | – | – | 0.003 µM | 0.007 µM | 0.005 µM | 0.005 µM | – |
| CON(C1OC[C@H](N)[C@H](O)[C@@H]1O)[C@@H]1C=C2CCC3C(CC[C@]4(C)[C@@H](c5ccc(=O)oc5)CC[C@]34O)[C@@]2(C)CC1 (stereo partly drawn) [CEN08-244, (3S)-3-N-methoxyamino-scillarenin-L-neo-4-amino-4-deoxyriboside] | < 0.08 µM | – | – | – | – | 0.004 µM | 0.01 µM | 0.006 µM | 0.006 µM | – |
| CC1OC(=O)C=C1C1CCC2(O)C3CCC4CC(OC5OCC(O)C(O)C5O)CCC4(C)C3CCC12C (stereo not drawn) [CEN08-245] | – | 1.29 µM | 3.7 µM | 2.1 µM | 3.22 µM | – | – | – | – | – |
| C[C@H]1O[C@@H](O[C@H]2[C@@H](O)C[C@H](O[C@H]3[C@@H](O)C[C@H](O[C@H]4CC[C@@]5(C)[C@H](CC[C@@H]6[C@@H]5CC[C@]5(C)[C@@H](C7=CC(=O)OC7)CC[C@]65O)C4)O[C@@H]3C)O[C@@H]2C)C[C@H](O)[C@@H]1O [Digitoxin] | – | – | – | – | – | – | – | – | – | IC50 (A549 (NSCLC) cell line [5]): 0.28 µM; IC50 [6]: 0.28 µM; IC50 [7]: 0.7 µM |
| C[C@@H]1O[C@@H](O[C@@H]2C=C3CC[C@@H]4[C@H](CC[C@]5(C)[C@@H](c6ccc(=O)oc6)CC[C@]45O)[C@@]3(C)CC2)[C@H](O)[C@H](O)[C@H]1O [proscillaridin, reference compound] | – | – | – | – | – | 0.012 µM | 0.008 µM | 0.012 µM | 0.015 µM | IC50 (A549 (NSCLC) cell line [1]; Homo sapiens, A549, NSCLC, footnote 7: determined at same time as CEN08-180): 0.003 µM; IC50 (A549 (NSCLC) cell line [1]; [8]): 0.002 µM; IC50 (H1299 (NSCLC) cell line; Homo sapiens, NCI-H1299, NSCLC, footnote 7: determined at same time as CEN08-180): 0.004 µM; IC50 (H1299 (NSCLC) cell line; [9]): 0.003 µM; IC50 ([2]; Homo sapiens, NCI-H460, NSCLC, footnote 7: determined at same time as CEN08-180): 0.011 µM; IC50 [2, 10]: 0.005 µM; IC50 ([3]; Homo sapiens, HT-29, Colorectal, footnote 7: determined at same time as CEN08-180): 0.01 µM; IC50 [3, 11]: 0.007 µM; IC50 ([4]; Homo sapiens, SK-OV-3, Ovarian, assay set not specified): 0.012 µM; IC50 ([4]; Homo sapiens, SK-OV-3, Ovarian, footnote 7: determined at same time as CEN08-180): 0.011 µM; IC50 [4, 12]: 0.045 µM |
| (3β)-3-N-methoxyaminoscillarenin [CEN08-180] | – | – | – | – | – | – | – | – | – | IC50 (A549 (NSCLC) cell line [1]; [18]): 0.003 µM; IC50 (H1299 (NSCLC) cell line; [18]): 0.008 µM; IC50 [2, 18]: 0.013 µM; IC50 ([3]; Colorectal, footnote 7: determined at same time as CEN08-180): 0.026 µM; IC50 ([4]; Ovarian, footnote 7: determined at same time as CEN08-180): 0.034 µM |
